Reference: patent US20230015647A1, “INHIBITORS OF HISTONE DEMETHYLASES (PFI-63 AND PFI-90) FOR THE TREATMENT OF CANCER AND FOR THE INHIBITION OF HISTONE DEMETHYLASE IN CELLS” (The United States of America,as represented by the …, priority 2019, published 2023)
“Also recorded” adds a separate entry of the source.

Tests used:
[1] = test system: NCI-60 cancer cell line panel; test: NCI-60 cancer cell line panel, percentage growth; type: cell-based, human
Experimental: This example describes the testing of PFI-90 against the NCI-60 panel. The NCI-60 cancer cell line panel is a collection of 60 human cancer cell lines maintained by the National Cancer Institute (see Shoemaker et al., Nat. Rev. Cancer, 6: 813-823 (2006)). Briefly, the percentage growth of the cancer cells lines was measured in the presence of PFI-90 at various concentrations.

[2] = test system: truncated KDM3B catalytic domain; test: WaterLOGSY NMR binding assay; conditions: 300 μM; in the presence and in the absence of 2-OG
From the text: A WaterLOGSY assay and a Carr-Purcell Meiboom-Gill (CPMG) based assay were used to investigate protein-ligand binding affinity between PFI-90 and a truncated KDM3B catalytic domain.
In traditional proton NMR experiments, a series of peaks are generated that represent the structure of a solitary small molecule, whereas the WaterLOGSY experiment examines the behavior of a small molecule's peaks in the presence of a potential target. This is achieved by observing differences in interaction between a small molecule interacting with water co-occupying a binding cleft on a target as compared to water dispersed freely in solution. The experiment then depicts the ratio of bound to unbound small molecule by phasing proton NMR spectra on the X-axis in opposing directions depending on the magnitude of that ratio (i.e., increasing ratios above 1 will phase positively, decreasing ratios below 1 will phase negatively).

## O=C(NNc1ccccn1)c1ccccn1 [PFI-90]
[1]; CNS cancer cell lines
  cell growth: inhibits cell growth
[1]; breast cancer cell lines
  cell growth: inhibits cell growth
[1]; colon cancer cell lines
  cell growth: inhibits cell growth
[1]; leukemia cell lines
  cell growth: slows and/or stops the growth of the cells; also recorded: inhibits cell growth
[1]; melanoma cell lines
  cell growth: inhibits cell growth
[1]; non-small cell lung cancer cell lines
  cell growth: inhibits cell growth
[1]; ovarian cancer cell lines
  cell growth: inhibits cell growth
[1]; prostate cancer cell lines
  cell growth: inhibits cell growth
[1]; renal cancer cell lines
  cell growth: inhibits growth and leads to cell death; also recorded: inhibits cell growth and induces cell death
[2]
  binding (WaterLOGSY): found to bind; also recorded: binds
